Assay results: patent EP0082667A1, “Pharmaceutical compositions” (BEECHAM GROUP PLC, priority 1981, dated 1983)
Read-outs that look alike come from different tables or passages of the source.

Experiments:
[1] = Detection of BVDU and metabolite in urine of the dosed animals; type: in vivo, mice
[2] = system: herpes simplex virus type 1 (strain SC-16); assay: Mouse ear herpesvirus model (virus replication and ear inflammation); type: in vivo, female Balb/c mice; conditions: for Virus titre (log10 p.f.u./ear) / Difference in ear thickness between uninfected and infected ears (mm x 10^-2): oral 3 x daily day 0 to day 4, BVDU 100mg/kg/dose or BVDU/Probenecid 100/200mg/kg/dose
Experimental: 1. Mouse Ear Herpesvirus Model (Reference, H.J. Field, Antimicrob. Ag. Chemother., 21, 744 (1982))
This model is based upon comparisons of viral replication in, and intlammation of, the ears of untreated or treated mice atter infection with herpesvirus.
The left pinna of female Balb/c mice were infected intradermally with 10^5 PFU of herpes simplex virus type 1 (strain SC-16) suspended in 2U^gl of Eagle minimum essential medium. The mice were treated orally 3 times daily from the time of infection until day +4 with BVDU at 100mg/kg/dose or a 1:2 mixture of BVDU and probenecid (100/200mg/kg/dose). At selected times after infection groups of three mice were killed and the ear thickness of both the left and right ears measured using a micrometer gauge. The left ears were then removed and placed individually into 3ml of phosphate buffered saline. Samples were homogenised and sonicated. After centrifugation the supernatant was removed and assayed immediately in a plaque assay in Vero cells.

[3] = HPLC assay of BVDU, BVDU metabolite and probenecid in mouse serum; type: in vivo, female Balb/c mice; conditions: for concentration at 1.25 h: Experiment 2, 75 mins after dosing; for concentration at 2 h: Experiment 2, 120 mins after dosing
Experimental: (§1) A single 100 mg/kg dose of BVDU, alone or in combination with 100 mg/kg or 200 mg/kg of probenecid, was administered as a suspension in carboxymethyl cellulose'to groups of 3 starved female Balb/c mice. Blood was collected at 30, 75 (or 85) and 120 minutes after dosing and the serum separated and stored at -20°C.
Instrument: Waters H.P.L.C. Column: RCM 100 C18 Reverse Phase Radical Compression Column Solvents: Solvent (A) 0.05M Ammonium Acetate at pH4.5 Solvent (B) 80% Methanol, 10% Water, 10%(A) Conditions: 50% (B) Detector wavelength: 250 mp Solvent Flow: 1 and 3 mL/min.
Mouse serum samples (90 pL each) were treated with 16% aqueous trichloroacetic acid solution (90 µL) to deposit all proteins and the samples spun down using a micro centrifuge. The supernatant portions were assayed by injection (20 µL) into a reverse phase HPLC column). […] Under these conditions, the BVDU metabolite had retention time of 10.8 min and BVDU 11.6 min. The amounts of BVDU and Probenecid were calculated by comparison with an injected known amount of.each drug. The amounts of BVDU metabolite were calculated by assuming the same detector response as BVDU. All calculations were then extrapolated to give the amount of each component present in each serum sample in pg/mL.
(§2) Mice dosed with BVDU and serum assayed at 30 and 85 minutes atter drug administration.
Mice dosed with BVDU or combinations of BVDU and Probenecid and the serum assayed by HPLC at 30, 75 and 120 minutes after drug administration.

[4] = system: herpes simplex virus type 1 (strain SC-16); assay: Hairless mouse cutaneous herpesvirus model (lesion scoring); type: in vivo, adult hairless (HrHr) female mice; conditions: each x one mouse, BVDU 100mg/kg or BVDU/Probenecid 100/200mg/kg
Experimental: When hairless mice are infected with herpesvirus by dermal scaritication, vesicles appear at the site ot inoculation b days later. These rapidly coalesce to form a spreading unilateral lesion involving one hind quarter, leading eventually to ascending paralysis and death. The ettect ot treatments is assessed by a scoring method as lesions develop.
uroups ot lu adult hairless (HrHr) female mice were anaesthetized using ether and then infected with herpes simplex virus type 1 (strain SC-16) by scarifying an area =1cm^2 at a site parallel with the top of the left hind limb, just below the midline, and introducing a drop ot virus-containing solution to tnis site. single dally doses ot placebo, Bvuu (100mg/kg/dose) or a 1:2 mixture or BVDU and probenecid (100/200mg/kg/dose) were administered orally for seven days, commencing 24 hours after intection. From 4 days atter infection individual mice were examined daily and scored according to the severity ot infection.

[5] = Plaque inhibition assay of sera from dosed mice (biological assay of antiviral activity in serum); type: cell-based, Herpes simplex type 1 virus; conditions: Experiment 1, single 100 mg/kg dose of BVDU, mouse serum, read-out: Antiviral activity in serum (BVDU equiv (µg/mL) ± Standard Deviation)
Experimental: as §1
(§3) Heat inactivated sera from single mice were titrated in plaque inhibition assays using the KOS strain of Herpes simplex type 1 virus in Vero cell monolayers. Antiviral activity is calculated by extrapolation from a standard inhibition dose response curve for BVDU and is quoted as the equivalent concentration of BVDU (in pg/mL) giving the same activity in cell culture.
as §2

[6] = system: KOS strain of Herpes simplex type 1 virus in Vero cell monolayers; assay: as above; type: cell-based; conditions: inferred from comparison of serum bioassay with HPLC levels of BVDU and metabolite
Experimental: as §1, §3, §2

[7] = mouse, in vivo, 100 mg/kg, single dose, BVDU 100 mg/kg alone or with probenecid 100 or 200 mg/kg, read-out: Concentration (µg/mL) in Serum BVDU
[8] = Day +8, single daily oral doses for seven days
[9] = Day +11, single daily oral doses for seven days
[10] = single dose, probenecid 200 mg/kg alone or 100 or 200 mg/kg with BVDU 100 mg/kg, read-out: Concentration (µg/mL) in Serum Probenecid

## O=c1[nH]c(=O)n([C@H]2C[C@H](O)[C@@H](CO)O2)cc1/C=C/Br [BVDU, E-5-(2-bromovinyl)-2'-deoxyuridine]
[1]
  detected in the urine: only BVDU and none of the metabolite was detected in the urine
[2]; Experiment A, day 1 post inoculation
  Virus titre (log10 p.f.u./ear): 3.5 log10 p.f.u./ear
[2]; Experiment A, day 2 post inoculation
  Virus titre (log10 p.f.u./ear): 3.0 log10 p.f.u./ear
[2]; Experiment A, day 3 post inoculation
  Virus titre (log10 p.f.u./ear): 2.9 log10 p.f.u./ear
[2]; Experiment A, day 4 post inoculation
  Virus titre (log10 p.f.u./ear): 3.3 log10 p.f.u./ear
[2]; Experiment A, day 7 post inoculation
  Virus titre (log10 p.f.u./ear): 1.3 log10 p.f.u./ear
[2]; Experiment B, day 1 post inoculation
  Virus titre (log10 p.f.u./ear): 4.1 log10 p.f.u./ear
[2]; Experiment B, day 2 post inoculation
  Virus titre (log10 p.f.u./ear): 3.0 log10 p.f.u./ear
[2]; Experiment B, day 3 post inoculation
  Virus titre (log10 p.f.u./ear): 3.3 log10 p.f.u./ear
[2]; Experiment B, day 4 post inoculation
  Virus titre (log10 p.f.u./ear): 3.9 log10 p.f.u./ear
[2]; Experiment B, day 7 post inoculation
  Virus titre (log10 p.f.u./ear): 0 log10 p.f.u./ear
[2]; day 1 post inoculation
  Difference in ear thickness between uninfected and infected ears (mm x 10^-2): 10.1 mm x 10^-2
[2]; day 2 post inoculation
  Difference in ear thickness between uninfected and infected ears (mm x 10^-2): 14.2 mm x 10^-2
[2]; day 3 post inoculation
  Difference in ear thickness between uninfected and infected ears (mm x 10^-2): 13.4 mm x 10^-2
[2]; day 4 post inoculation
  Difference in ear thickness between uninfected and infected ears (mm x 10^-2): 15.1 mm x 10^-2
[2]; day 7 post inoculation
  Difference in ear thickness between uninfected and infected ears (mm x 10^-2): 20.7 mm x 10^-2
[2]; day 8 post inoculation
  Difference in ear thickness between uninfected and infected ears (mm x 10^-2): 20.8 mm x 10^-2
[2]; day 9 post inoculation
  Difference in ear thickness between uninfected and infected ears (mm x 10^-2): 20.2 mm x 10^-2
[2]; day 11 post inoculation
  Difference in ear thickness between uninfected and infected ears (mm x 10^-2): 16.1 mm x 10^-2
[2]; day 12 post inoculation
  Difference in ear thickness between uninfected and infected ears (mm x 10^-2): 14.0 mm x 10^-2
[2]; day 14 post inoculation
  Difference in ear thickness between uninfected and infected ears (mm x 10^-2): 10.1 mm x 10^-2
[2]; oral 3 times daily until day +4, BVDU 100mg/kg/dose or 1:2 mixture 100/200mg/kg/dose
  ear thickness: no ettect
[3]; in vivo, Experiment 2, 30 mins after dosing, single dose, BVDU 100 mg/kg alone or with probenecid 100 or 200 mg/kg (dose in brackets in label), read-out: Concentration (µg/mL) in Serum BVDU
  concentration at 0.5 h: 26.1 µg/mL
[3]; mouse, in vivo, 100 mg/kg, Experiment 1, 30 mins after dosing, single 100 mg/kg dose of BVDU, read-out: HPLC Determinations BVDU Conc (µg/mL) in serum
  concentration at 0.5 h: 38 µg/mL
[3]; mouse, in vivo, 100 mg/kg, Experiment 1, 85 mins after dosing, single 100 mg/kg dose of BVDU, read-out: HPLC Determinations BVDU Conc (µg/mL) in serum
  concentration at 85 min: 3.9 µg/mL
[3]; [7]
  concentration at 1.25 h: 13 µg/mL
  concentration at 2 h: 3.6 µg/mL
[4]; Day +4, single daily oral doses for seven days from 24 hours after infection
  Mice with lesion score 2 (Scab at infection site): xxxxxxx
[4]; Day +4, single daily oral doses for seven days
  Mice with lesion score 1 (1° Vesicles): xxx
[4]; [8]
  Mice with lesion score 5 (Severe spreading): xxxxxxx
  Mice with lesion score 7 (Death): xx
[4]; [9]
  Mice with lesion score 4 (Spreading): xx
  Mice with lesion score 5 (Severe spreading): xxx
  Mice with lesion score 7 (Death): xxxx
[5]; 30 mins after dosing
  concentration at 0.5 h: 39.8 ± 10.6 µg/mL
[5]; 85 mins after dosing
  concentration at 85 min: 4.7 ± 1.4 µg/mL

## CCCN(CCC)S(=O)(=O)c1ccc(C(=O)O)cc1 [Probenecid]
[3]; Experiment 2, 30 mins after dosing, single dose, probenecid 200 mg/kg alone or 100 or 200 mg/kg with BVDU 100 mg/kg, read-out: Concentration (µg/mL) in Serum Probenecid
  concentration at 0.5 h: 3.8 µg/mL
[3]; [10]
  concentration at 1.25 h: 3.2 µg/mL
  concentration at 2 h: 2.3 µg/mL

## O=c1[nH]cc(/C=C/Br)c(=O)[nH]1 [BVDU Metabolite]
[6]
  antiviral activity: no significant antiviral activity
